The source of these data is patent US20210214385A1, “INHIBITORS OF D-AMINO ACID OXIDASE AND USES THEREOF” (SyneuRx International (Taiwan) Corp., priority 2018, published 2021).

The target of data set [1] is human D-amino acid oxidase (hDAAO) (Homo sapiens, UniProt P14920). The data set can be described thus: In vitro measurement of human D-amino acid oxidase (hDAAO) activity, D-Serine substrate, Amplex Red fluorescence. The format is biochemical.
In a further data set the test system is MK-801 treated mice. The experiment in a line: Pre-pulse inhibition in MK-801 treated mice. The format is in vivo. The conditions noted are these: 30 mg/kg oral, MK-801 0.3 mg/kg i.p., male mice. The method, then:
C57BL/6J male mice were group housed under the same condition as described in Example 1. Mice were randomly assigned into three groups, Group 1: vehicle control, Group 2: MK-801, Group 3: Cpd 24 (30 mg/kg)+MK-801. Mice in Group 2-3 received an acute intraperitoneal (i.p.) injection of MK-801 (Sigma-Aldrich USA), a NMDA receptor antagonist, dissolved in normal saline, at 0.3 mg/kg 20 minutes prior to the pre-pulse inhibition test. Each mouse in Group 1-2 and Group 3 received, respectively, an acute oral administration of 65% PEG400 in ddH2O and compound 24 at 30 mg/kg (dissolved with 65% PEG400 in ddH2O) 20 minutes prior to the MK-801 administration.
Pre-pulse inhibition, using SR-LAB startle apparatus (San Diego Instruments, San Diego, Calif., USA), was used to determine the efficacy of compound 24 on attenuating the MK-801 induced deficit of sensorimotor gating function in mice. Under 65 dB background noise, each session was composed of 5-minutes accumulation period followed by 64 trials in four blocks. The pulse alone (PA) trial was a 40 ms, 120 dB white noise burst. In the prepulse (pp)+pulse trials, a 20 ms white noise prepulse stimuli of 71 dB (pp6), 75 dB (pp10), and 83 dB (pp18) were presented 100 ms before a 40 ms 120 dB pulse. The non-stimulus (NS) trials presented the background noise only. The initial and the last blocks were composed of six PA trials, respectively. Two middle blocks consisted of PA, pp+pulse, and NS trials. These trials were presented pseudo-randomly and separated by intertribal intervals of 15 seconds on average (varying between 10 to 20 s). The percentage of prepulse inhibition was evaluated by the following formula: % PPI=100× [(PA score)−(pp-P score)]/(PA score), where the PA score was the average of the PA value in the middle blocks.

Data set [2] in a line: Log P, n-octanol/water partition coefficient, HPLC. Type of data set: physicochemical. The protocol:
The sample compounds tested in the log P experiments included enriched tannic acid (prepared by the enrichment method 10 of U.S. Ser. No. 10/105,378), compounds 21, 24, 27, 46, and 56. First, n-Octanol and water was saturated with each other to achieve partition equilibrium and the two phases were separated for further use. Sample compounds were dissolved in water and n-octanol phase, respectively. Both phases were mixed by vertical rotation movement. After the water and n-octal phases reached equilibrium state, both phases were analyzed to determine the concentrations of the sample compounds for the determination of log P values. All samples were performed in a Shimadzu CBM-20A FfPLC system. The chromatographic separation was carried out on a 5 μm, Kinetex C18 100 Å LC column (100×4.6 mm). The mobile phase was 0.1% formic acid in water and acetonitrile/Methanol set as gradient. Flow rate used was 1.2 mL/min. Column was at room temperature 20±5° C.
The partition coefficient abbreviated P is calculated based on the concentration in n-octanol divided by the concentration in water. The formula of log P is shown below: […]

Data set [3] is described as follows: Concentration in mouse brain after i.p. administration, HPLC-MS after tannase hydrolysis into gallic acid. Type of data set: in vivo, mice. The method, then:
The objective of this experiment was to compare the concentration of Compound 24 and enriched tannic acid in mouse brain after intraperitoneal (i.p.) administration. The enriched tannic acid was prepared by the enrichment method 10 of U.S. Ser. No. 10/105,378. C57BL/6J mice at 14 weeks of age were divided into two groups with 3 mice each. The mice in group I and II were, respectively, i.p. injected with Compound 24 at 30 mg/kg and enriched tannic acid at 15 mg/kg once every two days for three months. The brain sample was collected from each animal at 24 hours after the final i.p. administration and immediately frozen and stored at −70° C. until further use.
The amounts of Compound 24 and enriched tannic acid in mice brain were analyzed by high performance liquid chromatography-mass spectrometry (HPLC-MS) after enzymatic hydrolysis into gallic acid. Each frozen brain sample was homogenized with 4-fold volume of deionized water (ddH2O) using a handheld tissue homogenizer (BT Lab Systems). […]
Chromatographic analysis was performed using a Phenomenex Kinetex C8 column (150×4.6 mm, 5 μm). […] Quantitation was done using the selected-ion monitoring chromatogram (SIM) mode to monitor the precursor ion of m/z 169 for gallic acid and m/z 137 for 4-hydroxybenzoic acid as an internal standard. […]

A further data set is described as follows: in vivo. The conditions noted are these: C57BL/6J, mouse, po.

human D-amino acid oxidase (hDAAO), sequence (P14920 whole entry): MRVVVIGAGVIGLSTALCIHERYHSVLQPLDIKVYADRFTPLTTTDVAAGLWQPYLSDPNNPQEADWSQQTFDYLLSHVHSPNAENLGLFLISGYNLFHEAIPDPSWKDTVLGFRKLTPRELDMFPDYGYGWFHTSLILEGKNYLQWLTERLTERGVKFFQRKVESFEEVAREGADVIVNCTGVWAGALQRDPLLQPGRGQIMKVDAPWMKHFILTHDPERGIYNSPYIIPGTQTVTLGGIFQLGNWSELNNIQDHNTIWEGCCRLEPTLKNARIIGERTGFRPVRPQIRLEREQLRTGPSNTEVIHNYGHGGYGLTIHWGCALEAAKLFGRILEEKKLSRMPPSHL

The compound `O=C(OC[C@H]1O[C@H](OC(=O)c2cc(O)c(O)c(OC(=O)c3cc(O)c(O)c(OC(=O)c4cc(O)c(O)c(O)c4)c3)c2)[C@H](OC(=O)c2cc(O)c(O)c(OC(=O)c3cc(O)c(O)c(OC(=O)c4cc(O)c(O)c(O)c4)c3)c2)[C@@H](OC(=O)c2cc(O)c(O)c(OC(=O)c3cc(O)c(O)c(OC(=O)c4cc(O)c(O)c(O)c4)c3)c2)[C@@H]1OC(=O)c1cc(O)c(O)c(OC(=O)c2cc(O)c(O)c(OC(=O)c3cc(O)c(O)c(O)c3)c2)c1)c1cc(O)c(O)c(OC(=O)c2cc(O)c(O)c(OC(=O)c3cc(O)c(O)c(O)c3)c2)c1` [Compound 24, (2R,3R,4S,5R,6R)-6-(((3-((3,4-dihydroxy-5-((3,4,5-trihydroxybenzoyl)oxy)benzoyl)oxy)-4,5-dihydroxybenzoyl)oxy)methyl)tetrahydro-2H-pyran-2,3,4,5-tetrayl tetrakis(3-((3,4-dihydroxy-5-((3,4,5-trihydroxybenzoyl)oxy)benzoyl)oxy)-4,5-dihydroxybenzoate)] had an IC50 in data set [1] of 0.013 µM. Moreover, the pre-pulse inhibition percentage entry in the data set with MK-801 treated mice (71 dB pre-pulse intensity) and with MK-801 treated mice (83 dB pre-pulse intensity) was “moderately increased the inhibition percentage” throughout. Besides, in the data set with MK-801 treated mice (75 dB pre-pulse intensity), the “MK-801 induced pre-pulse inhibition deficit” value was “significantly improved”. Also, the logP in data set [2] was 0.58. The “Concentration (amount per g brain tissue)” value in data set [3] (30 mg/kg i.p. once every two days for three months, 24 hours after final dose) was found to be 2714.19 ng/g. Also, the “brain concentration relative to enriched tannic acid” value in data set [3] (compound 24 at 30 mg/kg vs enriched tannic acid at 15 mg/kg i.p.) is “more than 9 times”. Further, in the data set “in vivo”, the MTD at 7 day is 4500 mg/kg.

In general, IC50 refers to the concentration needed to halve the response being measured. Low readings indicate inhibition by little substance, high ones a need for much substance. The term logP denotes a log measure of how a compound divides between an organic and an aqueous phase. A higher logP goes with a more lipophilic compound.
